{"source": "BindingDB's records for patent US11912668", "about": "(Deciphera Pharmaceuticals, 2024)", "key": {"[1]": {"target": "T1, Eukaryotic translation initiation factor 2-alpha kinase 3 [563-1115] (Homo sapiens, UniProt Q9NZJ5)", "T1 construct": "563-1115", "T1 sequence (Q9NZJ5 whole entry)": "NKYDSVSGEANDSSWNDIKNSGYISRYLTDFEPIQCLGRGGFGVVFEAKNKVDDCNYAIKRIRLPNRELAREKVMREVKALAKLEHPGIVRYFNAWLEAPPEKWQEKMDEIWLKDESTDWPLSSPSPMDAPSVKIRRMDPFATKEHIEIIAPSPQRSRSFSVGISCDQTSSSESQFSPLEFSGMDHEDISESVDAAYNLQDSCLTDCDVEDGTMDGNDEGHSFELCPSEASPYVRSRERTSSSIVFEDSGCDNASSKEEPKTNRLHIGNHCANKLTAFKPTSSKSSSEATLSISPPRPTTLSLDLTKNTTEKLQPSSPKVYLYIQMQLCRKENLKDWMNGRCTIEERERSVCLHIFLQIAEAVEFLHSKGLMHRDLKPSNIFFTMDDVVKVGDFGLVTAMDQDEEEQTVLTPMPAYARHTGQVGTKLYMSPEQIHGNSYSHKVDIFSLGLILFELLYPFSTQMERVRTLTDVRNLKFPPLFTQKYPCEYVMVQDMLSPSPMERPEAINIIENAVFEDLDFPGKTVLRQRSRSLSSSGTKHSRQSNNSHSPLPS", "test": "Biochemical Assay for PERK", "description": "Activity of PERK kinase was determined spectroscopically using a coupled pyruvate kinase/lactate dehydrogenase assay that continuously monitors the ATP hydrolysis-dependent oxidation of NADH (e.g., Schindler et al. Science (2000) 289: 1938-1942). Assays were conducted in 384-well plates (100 μL final volume) using 10 nM PERK (from Beryllium), 0.25 mg/mL Myelin Basic Protein substrate, 1.5 units pyruvate kinase, 2.1 units lactate dehydrogenase, 1 mM phosphoenol pyruvate, 0.28 mM NADH and 1 mM ATP in assay buffer (100 mM Tris, pH 7.5, 15 mM MgCl2, 0.5 mM DTT, 0.004% (w/v) BSA, and 0.004% Triton X-100). Inhibition of PERK was measured by adding serial diluted test compound (final assay concentration of 1% DMSO). A decrease in absorption at 340 nm was monitored continuously for 6 hours at 30° C. on a multi-mode microplate reader (BioTek). The reaction rate was calculated using the 2-3 h time frame. The reaction rate at each concentration of compound was converted to percent inhibition using controls (i.e. reaction with no test compound and reaction with a known inhibitor) and IC50 values were calculated using software routines in Prism (GraphPad software)."}, "[2]": {"target": "eIF-2-alpha kinase GCN2 (Homo sapiens, UniProt Q9P2K8)", "sequence (Q9P2K8 whole entry)": "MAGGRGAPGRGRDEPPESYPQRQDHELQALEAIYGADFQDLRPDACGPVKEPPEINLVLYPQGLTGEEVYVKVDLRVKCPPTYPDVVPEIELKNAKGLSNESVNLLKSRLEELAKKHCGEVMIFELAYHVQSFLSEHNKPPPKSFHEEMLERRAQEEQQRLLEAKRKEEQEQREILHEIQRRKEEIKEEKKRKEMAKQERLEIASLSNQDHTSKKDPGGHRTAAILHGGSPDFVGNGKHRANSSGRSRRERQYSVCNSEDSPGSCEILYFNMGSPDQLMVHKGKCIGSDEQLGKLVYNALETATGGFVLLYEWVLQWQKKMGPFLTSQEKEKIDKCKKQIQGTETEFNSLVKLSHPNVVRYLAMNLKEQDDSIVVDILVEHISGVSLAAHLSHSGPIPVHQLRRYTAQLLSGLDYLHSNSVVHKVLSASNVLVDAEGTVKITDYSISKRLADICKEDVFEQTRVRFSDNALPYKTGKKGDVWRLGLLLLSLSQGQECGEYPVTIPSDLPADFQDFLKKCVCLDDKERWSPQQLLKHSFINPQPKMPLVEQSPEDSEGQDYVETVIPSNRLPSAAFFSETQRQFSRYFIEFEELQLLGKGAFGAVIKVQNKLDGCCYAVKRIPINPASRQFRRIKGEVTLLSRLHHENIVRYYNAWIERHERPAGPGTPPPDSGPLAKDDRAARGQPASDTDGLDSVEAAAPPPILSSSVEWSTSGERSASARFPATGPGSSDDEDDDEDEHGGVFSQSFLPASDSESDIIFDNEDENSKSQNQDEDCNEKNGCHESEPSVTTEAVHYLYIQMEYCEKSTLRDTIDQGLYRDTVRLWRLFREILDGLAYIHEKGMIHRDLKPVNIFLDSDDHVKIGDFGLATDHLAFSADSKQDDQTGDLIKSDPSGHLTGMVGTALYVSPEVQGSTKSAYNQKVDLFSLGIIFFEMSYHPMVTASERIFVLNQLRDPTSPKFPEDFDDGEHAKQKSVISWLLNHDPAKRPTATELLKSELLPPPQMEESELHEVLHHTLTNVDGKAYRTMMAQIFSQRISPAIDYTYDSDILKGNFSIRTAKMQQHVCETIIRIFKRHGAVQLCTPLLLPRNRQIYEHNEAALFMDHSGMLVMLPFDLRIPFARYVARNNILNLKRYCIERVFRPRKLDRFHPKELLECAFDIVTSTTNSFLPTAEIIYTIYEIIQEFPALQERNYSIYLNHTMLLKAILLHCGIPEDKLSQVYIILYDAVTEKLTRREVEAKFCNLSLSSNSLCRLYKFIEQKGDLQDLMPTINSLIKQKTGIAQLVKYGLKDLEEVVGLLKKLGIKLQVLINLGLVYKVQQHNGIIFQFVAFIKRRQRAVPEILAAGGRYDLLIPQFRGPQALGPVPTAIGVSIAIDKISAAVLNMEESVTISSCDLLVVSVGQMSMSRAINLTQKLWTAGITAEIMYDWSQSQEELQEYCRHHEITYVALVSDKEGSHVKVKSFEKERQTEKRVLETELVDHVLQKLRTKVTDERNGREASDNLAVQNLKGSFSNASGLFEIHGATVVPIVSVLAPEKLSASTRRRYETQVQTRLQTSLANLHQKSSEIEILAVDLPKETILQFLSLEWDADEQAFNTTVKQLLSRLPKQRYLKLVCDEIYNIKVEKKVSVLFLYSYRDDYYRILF", "test": "Biochemical Assay for GCN2", "description": "Activity of GCN2 kinase was determined using a TR-FRET kinase activity assay (e.g. Riddle et al. Analytical Biochemistry (2006) 356(1) 108-116). Assays were conducted in 384-well plates (13 μL assay volume) using 2 nM GCN2 (Carna Biosciences), 130 nM GFP-EIf2α (Invitrogen), 0.2 mg/mL E. coli tRNA (sigma) and 1 mM ATP in kinase buffer (Invitrogen). Inhibition of GCN2 was measured by adding serial diluted test compound (final assay concentration of 0.5% DMSO) followed by a 3-hour incubation. Tb-peIF2α (pSer52) antibody (Invitrogen) (2 nM final assay concentration) in kinase buffer containing ETDA (final assay concentration of 20 mM) was added. After a 60 min incubation at room temperature, TR-FRET was monitored using an excitation wavelength of 340 nm and emission wavelengths of 490 nm and 520 nm. The emission ratio (520/490) at each compound concentration of was converted to percent inhibition using controls (i.e. reaction with no test compound and reaction with a known inhibitor) and IC50 values were calculated by fitting a four-parameter sigmoidal curve to the data using Prism (GraphPad software)."}}}
{"smiles": "Cc1nc2cc(N)ncc2cc1-c1cccc(NS(=O)(=O)c2cc(Cl)cc(CO)c2Cl)c1F", "note": "[US11912668, Example 174]", "values": [{"measurement": "IC50", "setting": "[1]", "result": "< 100", "unit": "nM"}, {"measurement": "IC50", "setting": "[2]", "result": "< 100", "unit": "nM"}]}
{"smiles": "CNc1cc2nc(N)c(-c3cccc(NS(=O)(=O)c4cc(Cl)cc(CO)c4Cl)c3F)cc2cn1", "note": "[US11912668, Example 171]", "values": [{"measurement": "IC50", "setting": "[1]", "result": "< 100", "unit": "nM"}, {"measurement": "IC50", "setting": "[2]", "result": "< 100", "unit": "nM"}]}
{"smiles": "CNc1ncc2cc(-c3cc(F)cc(NS(=O)(=O)c4cc(Cl)cnc4OC)c3)c(C)nc2n1", "note": "[US11912668, Example 65]", "values": [{"measurement": "IC50", "setting": "[2]", "result": "< 100", "unit": "nM"}]}
